Consider ten compounds from PubChem BioAssay (NCI).

What all share (assay): NCI anticancer screen, dose series, 48 h
The subject of test [1] is A498 renal.
The test system of test [2] is HS 578T breast.
In test [3] the test system is LOX IMVI melanoma.
Test [4] has as its system MCF7 breast.
Test [5] has as its system NCI-H226 lung.
The test system of test [6] is SF-268 CNS.
In test [7] the test system is SF-295 CNS.
In test [8] the test system is SK-MEL-5 melanoma.
Test [9] deals with SNB-75 CNS.
Test [10] deals with SR leukemia.

Values joined by “and” are separate entries in the source; they are usually repeats but may differ in a detail not shown here. Equal values may be shown once.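 Each compound was tested at five concentrations against cells in 96-well plates for 48 hours. GI50: concentration for 50% inhibition of growth. TGI denotes the concentration required for complete inhibition of growth.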

On to `c1ccc([P+](CCC[P+](c2ccccc2)(c2ccccc2)c2ccccc2)(c2ccccc2)c2ccccc2)cc1`, for which the GI50 in test [1] is 14.6 µM; in test [2] it was 11.8 µM; in test [4] it was 6.79 µM; in test [5], 32.7 µM; in [6] it was 7.71 µM; in test [7], 16.2 µM. The GI50 in [8] was 6.8 µM; in test [9], 4.56 µM; in [10] it was 4.82 µM. Further, the TGI in test [1] is > 100 µM; in test [2] it was 85.4 µM; in test [3], > 100 µM; in test [4] it was > 100 µM; in test [5], 93.8 µM and > 100 µM; in [6] it was > 100 µM. Moreover, the TGI was > 100 µM in test [7]; 74.1 µM and 38.7 µM in [8]; 86 µM and 67.6 µM in test [9]; > 100 µM in test [10].
In the case of `COc1cc(/C=N/O)nc(-c2ccccn2)c1`, the GI50 was 0.717 µM in test [1]; 3.76 µM in test [2]; 0.271 µM in test [3]; 0.347 µM in test [4]; 0.325 µM in test [5]; 0.357 µM in test [6]. For the same compound, the GI50 is 0.5 µM in test [9] and 0.284 µM in test [10]. The TGI in test [1] was 19.4 µM; in test [2] it was > 100 µM; in test [3], 10.8 µM; in [4], > 100 µM; in test [5] it was 5.93 µM; in test [6], 68.2 µM. In addition, the TGI was > 35.5 µM in test [7], 1.31 µM in test [8] and 22.2 µM in test [10].
On to `CSc1ccc(C(=O)/C=C/c2ccc(F)cc2)cc1`, for which the GI50 in [1] is 26.7 µM; in test [2], > 100 µM; in test [3] it was 29.1 µM; in test [4], 28.5 µM; in test [5] it was 57.4 µM; in test [6], 75.9 µM. The GI50 was 33.4 µM in test [7], 75 µM in test [8], 7.05 µM in [9] and 25.7 µM in test [10]. The TGI was 95.5 µM in test [1]; > 100 µM in test [2]; 83.4 µM in [3]; 70 µM in test [4]; > 100 µM in [5]; > 100 µM in test [6]. Besides, the TGI was > 100 µM in [7], > 100 µM in test [8], > 100 µM in test [9] and 51.5 µM in test [10].
With `CC1CCC(C#N)(NOC2=NCCN2)CC1` (stereo unspecified), the GI50 was 40.5 µM in [1]; > 100 µM in test [2]; 5.33 µM in test [3]; 55.6 µM in test [4]; 15.2 µM in test [5]; 63.1 µM in test [6]. In addition, the GI50 was 23.6 µM in [7], 38.6 µM in [8], > 100 µM in [9] and 38.7 µM in [10]. Besides, the TGI in [1] is > 100 µM; in [2], > 100 µM; in test [3], 20.2 µM; in [4], > 100 µM; in test [5], 34.1 µM; in test [6], > 100 µM. Moreover, the TGI in test [7] was 93.4 µM; in test [8], > 100 µM; in [9] it was > 100 µM; in test [10] it was > 100 µM.
`C=C(C)C1CCC2(CO)C(O)CC3(C)C(CCC4C5(C)CCC(O)C(C)(C)C5CCC43C)C12` (stereo unspecified): the TGI was 31.9 µM in [1]; 90.7 µM in test [2]; 24.2 µM in [3]; 43.6 µM in test [4]; > 100 µM in [5]; > 100 µM in test [6]. In addition, the TGI is 10.3 µM in test [7], 21.3 µM in test [8], 9.5 µM in test [9] and > 100 µM in test [10].
Regarding `c1cc(-c2cnn3nc(N4CCOCC4)ccc23)nc(NC2CC2)n1`, the GI50 in [1] was 5.66 µM; in [2], 8.12 µM; in test [3], 6.23 µM; in test [4] it was 5.38 µM; in test [5], 5.59 µM; in [6], 8.14 µM. The GI50 in test [7] is 8.72 µM; in test [8], 5.76 µM; in test [9], 5.99 µM; in [10] it was 6.48 µM. For the same compound, the TGI was 16.6 µM in [1]; > 22.8 µM in test [2]; > 25 µM in test [3]; > 25 µM in test [4]; > 25 µM in [5]; 24.6 µM in test [6]. The TGI in test [7] is > 25 µM; in test [8], 16.7 µM; in test [9], 18.6 µM; in [10], 20 µM.
As for `OCCCCC#Cc1ccccc1C#Cc1cccs1`, the GI50 in [1] was 9.67 µM; in [2] it was 14.9 µM; in test [3] it was 13.9 µM; in test [4], 1.88 µM; in test [5] it was 18.9 µM; in [6] it was 15.8 µM. Further, the GI50 is 19 µM in test [7], 13.3 µM in [8], 11.8 µM in test [9] and 1.85 µM in test [10]. Also, the TGI in test [1] came out at 23.3 µM; in test [2], 39.1 µM; in test [3] it was 26.8 µM; in test [4], 29.1 µM; in [5], 43.6 µM; in test [6] it was 32 µM. Besides, the TGI in [7] is 34.7 µM; in test [8], 26 µM; in test [9] it was 24.8 µM; in test [10], 14.5 µM.
With `COc1ccc(-c2cc3nccn3c(Nc3ncccc3C(N)=O)n2)cc1OC`, the GI50 was 0.456 µM in [1]; > 31.8 µM in [2]; 0.807 µM in test [3]; 1.87 µM in test [4]; > 100 µM in test [5]; 3.65 µM in [6]. For the same compound, the GI50 in test [7] was > 100 µM; in test [8], 4.87 µM; in test [9], 1.04 µM; in test [10], 0.275 µM. The TGI in test [1], in test [2], in [3], in [4], in [5] and in test [6] was > 100 µM in each case. Also, the TGI in test [7] was > 100 µM; in [8] it was > 100 µM; in [9], > 100 µM; in test [10] it was 21.4 µM.
In the case of `Cc1sc2c(c1C)C(c1ccc(Cl)cc1)=N[C@@H](CC(=O)Nc1ccc(O)cc1)c1nnc(C)n1-2`, the GI50 in test [1] is 0.204 µM; in [2], 0.169 µM; in test [3], 0.109 µM; in [4] it was 0.0553 µM; in test [5], 4.48 µM; in [6], 11.8 µM. The GI50 in [7] was 2 µM; in test [8], 0.472 µM; in test [9] it was 0.0297 µM; in test [10], 0.344 µM. Moreover, the TGI in test [1] is 2.48 µM; in test [2] it was 27.2 µM; in test [3], 6.29 µM; in [4], 18.2 µM; in test [5] it was 26 µM; in test [6], 50.8 µM. Further, the TGI in test [7] was found to be 22.4 µM; in test [8], 14.9 µM; in [9] it was 8.58 µM; in [10], 28.6 µM.
As to `CCN1CCN(c2cc(C)nc(NCc3cc(Nc4ccnc5cc(Cl)ccc45)ccc3F)n2)CC1`, the GI50 in [1] was 1.89 µM; in test [2], 5.34 µM; in test [3] it was 1.74 µM; in test [4], 0.302 µM; in test [5], 15.4 µM; in [6], 4.09 µM. In addition, the GI50 in test [7] was 2.05 µM; in [8] it was 1.55 µM; in test [9], 10.5 µM; in test [10], 2.14 µM. Besides, the TGI in test [1] was 8.05 µM; in test [2], 50.6 µM; in [3], 3.6 µM; in [4] it was 16.9 µM; in test [5] it was 48.9 µM; in [6] it was 40 µM. Also, the TGI is 5.96 µM in test [7], 2.99 µM in test [8], 30.8 µM in test [9] and 9.3 µM in test [10].
